This passage reports inhibition, Degree of inhibition in PAI chromogenic substrate assay and IC50 results from US5902812A, “Pharmaceutical piperazine compounds” (Xenova Limited, priority 1994, dated 1999).

The structures appear in SMILES notation. Where a name gives a salt, the structure may show the parent alone. Read-outs that look alike come from different tables or passages of the source.

This test addresses PAI-1 (Homo sapiens, UniProt P05121). The test is described as follows: biochemical. The settings on record: for IC50: PAI chromogenic substrate assay, read-out: IC50.
[1] abbreviates: 6.25 μM, read-out: Degree of inhibition in PAI chromogenic substrate assay.
Where [2] appears, read: 12.5 μM, read-out: Degree of inhibition in PAI chromogenic substrate assay.
Setting [3] is: 25 μM, read-out: Degree of inhibition in PAI chromogenic substrate assay.
Setting [4] is: 50 μM, read-out: Degree of inhibition in PAI chromogenic substrate assay.
[5] abbreviates: 100 μM, read-out: Degree of inhibition in PAI chromogenic substrate assay.
The mark [6] stands for this setting: 20 μM (third part of Table 1), read-out: Degree of inhibition in PAI chromogenic substrate assay.
Setting [7] is: 100 μM (third part of Table 1), read-out: Degree of inhibition in PAI chromogenic substrate assay.
The mark [8] stands for this setting: 20 μM (third part of Table 1), 20 µM.

Chain of PAI-1 (P05121 24-402): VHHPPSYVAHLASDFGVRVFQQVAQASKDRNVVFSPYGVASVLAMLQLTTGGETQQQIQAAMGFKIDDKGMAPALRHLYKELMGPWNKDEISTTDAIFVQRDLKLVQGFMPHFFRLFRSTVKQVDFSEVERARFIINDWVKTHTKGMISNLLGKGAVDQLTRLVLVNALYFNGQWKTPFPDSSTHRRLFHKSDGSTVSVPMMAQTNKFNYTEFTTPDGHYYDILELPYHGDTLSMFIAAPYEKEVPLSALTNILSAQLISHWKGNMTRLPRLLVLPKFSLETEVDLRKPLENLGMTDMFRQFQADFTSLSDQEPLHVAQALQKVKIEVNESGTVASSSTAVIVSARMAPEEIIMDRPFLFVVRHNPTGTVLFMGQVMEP

`CN(C)CCOc1cccc(/C=c2\[nH]c(=O)/c(=C/c3cccc(OCCN(C)C)c3)[nH]c2=O)c1` [Compound 1947, (3Z,6Z)-3,6-Di-(3-(2-dimethylaminoethoxy)benzylidene)-2,5-piperazinedione]: the inhibition at 6.25 µM under setting [1] is 0%. Also, the inhibition at 12.5 µM under setting [2] is 1%. Besides, under setting [3], the inhibition at 25 µM amounted to 1%. Moreover, under setting [4], the inhibition at 50 µM turned out to be 1%. Moreover, the inhibition at 100 µM under setting [5] worked out at 1%.
Turning to `CN(C)CCCOc1ccc(/C=c2\[nH]c(=O)/c(=C/c3ccc(OCCCN(C)C)cc3)[nH]c2=O)cc1` [Compound 1955, (3Z,6Z)-3,6-Di-(4-(3-dimethylaminopropoxy)benzylidene)-2,5-piperazinedionebis hydrogen succinate (1:2)], where the note is “6.25 μM”, the Degree of inhibition in PAI chromogenic substrate assay was 0%. The inhibition at 12.5 µM under setting [2] was 2%. Moreover, the inhibition at 25 µM under setting [3] worked out at 3%. For the same compound, under setting [4], the inhibition at 50 µM came out at 2%. The inhibition at 100 µM under setting [5] amounted to 9%.
As to `CN(C)CCOc1ccc(/C=c2\[nH]c(=O)/c(=C/c3ccccc3)[nH]c2=O)cc1` [Compound 1956], the Degree of inhibition in PAI chromogenic substrate assay (6.25 μM) is 31%; the Degree of inhibition in PAI chromogenic substrate assay (12.5 μM) is 65%; the Degree of inhibition in PAI chromogenic substrate assay (25 μM) was determined as 69%; the Degree of inhibition in PAI chromogenic substrate assay (50 μM) stood at 69%; the Degree of inhibition in PAI chromogenic substrate assay (100 μM) amounted to 61%.
For `CN(C)CCCOc1ccc(/C=c2\[nH]c(=O)/c(=C/c3cc(Cl)cc(Cl)c3)[nH]c2=O)cc1` [Compound 5380, (3Z,6Z)-3-(3,5-Dichlorobenzylidene)-6-(4-(3-dimethylaminopropoxy)benzylidene)-2,5-piperazinedione], the 50% inhibitory concentration (IC50) was found to be 15 µM.
Take `CC(C)(C)CC(=O)Oc1ccc(/C=c2\[nH]c(=O)/c(=C/c3ccccc3)[nH]c2=O)cc1` [Compound 1889, (3Z,6Z)-6-Benzylidene-3-(4-(3,3-dimethylbutanoyloxy)benzylidene)-2,5-piperazinedione]: the inhibition at 6.25 µM under setting [1] stood at 0%. For the same compound, the inhibition at 12.5 µM under setting [2] was found to be 3%. Moreover, under setting [3], the inhibition at 25 µM is 15%. The inhibition at 50 µM under setting [4] amounted to 38%. In addition, the inhibition at 100 µM under setting [5] was determined as 49%.
On to `CN(C)CCCOc1ccc(/C=c2\[nH]c(=O)/c(=C/c3cccc([N+](=O)[O-])c3)[nH]c2=O)cc1` [Compound 5231, (3Z,6Z)-6-(4-(3-Dimethylaminopropoxy)benzylidene)-3-(3-nitrobenzylidene)-2,5-piperazinedione], for which the IC50 was found to be 1.5 µM. Also, under setting [6], the inhibition at 20 µM was 42%. The inhibition at 100 µM under setting [7] was 36%.
In the case of `CN(C)CCCOc1ccc(/C=c2\[nH]c(=O)/c(=C/c3ccc(C(N)=O)cc3)[nH]c2=O)cc1` [Compound 5246, 4-((3Z,6Z)-6-(4-(3-Dimethylaminopropoxy)benzylidene)-2,5-dioxo-3-piperazinylidene)methylbenzamide], under setting [8], the Degree of inhibition in PAI chromogenic substrate assay was found to be 34%.
Take `CN(C)CCCOc1ccc(/C=c2\[nH]c(=O)/c(=C/c3cccc(Cl)c3)[nH]c2=O)cc1` [Compound 5237]: the IC50 was 4 µM. Also, the inhibition at 20 µM under setting [6] is 72%. Moreover, under “100 μM (third part of Table 1), 100 µM”, the Degree of inhibition in PAI chromogenic substrate assay is 67%.
In the case of `CCCCCCOc1ccc(/C=c2\[nH]c(=O)/c(=C/c3ccc(OC)cc3)[nH]c2=O)cc1` [Compound 1907, (3Z,6Z)-3-(4-Hexyloxybenzylidene)-6-(4-methoxybenzylidene)-2,5-piperazinedione], the inhibition at 6.25 µM under setting [1] was determined as 10%. Besides, the inhibition at 12.5 µM under setting [2] came to 23%. Moreover, under setting [3], the inhibition at 25 µM stood at 37%. Besides, the inhibition at 50 µM under setting [4] worked out at 69%. Moreover, the inhibition at 100 µM under setting [5] came out at 80%.
In the case of `CCCCCCC(=O)Oc1ccc(/C=c2\[nH]c(=O)/c(=C/c3ccc(OC)cc3)[nH]c2=O)cc1` [Compound 1887, (3Z,6Z)-3-(4-Heptanoyloxybenzylidene)-6-(4-methoxybenzylidene)-2,5-piperazinedione], the inhibition at 6.25 µM under setting [1] is 0%. Further, the inhibition at 12.5 µM under setting [2] was found to be 5%. In addition, under setting [3], the inhibition at 25 µM was found to be 24%. Besides, the inhibition at 50 µM under setting [4] was 46%. Also, the inhibition at 100 µM under setting [5] worked out at 83%.
As for `CN(C)CCCOc1ccc(/C=c2\[nH]c(=O)/c(=C/c3cccc(N4C(=O)c5ccccc5C4=O)c3)[nH]c2=O)cc1` [Compound 5255, (3Z,6Z)-6-(4-(3-Dimethylaminopropoxy)benzylidene)-3-(3-phthalimidobenzylidene)-2,5-piperazinedione], the half-inhibitory concentration (IC50) was determined as 15 µM. Besides, the inhibition at 20 µM under setting [6] stood at 80%. Besides, the inhibition at 100 µM under setting [7] amounted to 33%.
For the compound `CN(C)CCCOc1ccc(/C=c2\[nH]c(=O)/c(=C/c3ccc(C(C)(C)C)cc3)[nH]c2=O)cc1` [Compound 5238, (3Z,6Z)-3-(4-(3-Dimethylaminopropoxy)benzylidene)-6-(4-tert-butylbenzylidene)-2,5-piperazinedione], the inhibition at 20 µM under setting [6] worked out at 3%. Further, under setting [7], the inhibition at 100 µM was 36%.
Turning to `CSc1ccc(/C=c2\[nH]c(=O)/c(=C/c3ccc(OCCCN(C)C)cc3)[nH]c2=O)cc1` [Compound 5385, (3Z,6Z)-3-(4-(3-Dimethylaminopropoxy)benzylidene)-6-(4-methylthiobenzylidene)-2,5-piperazinedione], the half-inhibitory concentration (IC50) worked out at 2 µM.
Take `CN(C)CCOc1ccc(/C=c2\[nH]c(=O)/c(=C/c3ccccc3)[nH]c2=O)cc1` [Compound 1961, (3Z,6Z)-3-Benzylidene-6-(4-(2-dimethylaminoethoxy)benzylidene)-2,5-piperazinedione]: the inhibition at 3.75 µM (3.75 μM, read-out: Degree of inhibition in PAI chromogenic substrate assay) was found to be 1%. Further, the inhibition at 7.5 µM (7.5 μM, read-out: Degree of inhibition in PAI chromogenic substrate assay) was 11%. The inhibition at 15 µM (15 μM, read-out: Degree of inhibition in PAI chromogenic substrate assay) worked out at 41%. Moreover, the inhibition at 30 µM (30 μM, read-out: Degree of inhibition in PAI chromogenic substrate assay) was determined as 49%. Besides, the inhibition at 60 µM (60 μM, read-out: Degree of inhibition in PAI chromogenic substrate assay) was 48%.
Regarding `CN(C)CCCOc1ccc(/C=c2\[nH]c(=O)/c(=C/c3ccccc3)[nH]c2=O)cc1` [Compound 1852, (3Z,6Z)-6-Benzylidene-3-(4-(3-dimethylaminopropoxy)benzylidene)-2,5-piperazinedione], under setting [1], the inhibition at 6.25 µM was 4%. Further, under setting [2], the inhibition at 12.5 µM worked out at 67%. Besides, under setting [3], the inhibition at 25 µM is 74%. Further, under setting [4], the inhibition at 50 µM came to 71%. In addition, the inhibition at 100 µM under setting [5] amounted to 72%.
For `CN(C)CCCOc1ccc(/C=c2\[nH]c(=O)/c(=C/c3cc(Cl)cc(Cl)c3)[nH]c2=O)cc1` [Compound 5372, (3Z,6Z)-3-(3,5-Dichlorobenzylidene)-6-(4-(3-dimethylaminopropoxy)benzylidene)-2,5-piperazinedione], the IC50 is 11 µM.
On to `CN(C)CCCOc1ccc(/C=c2\[nH]c(=O)/c(=C/c3ccc(C(N)=O)cc3)[nH]c2=O)cc1` [Compound 5254, 4-((3Z,6Z)-6-(4-(3-Dimethylaminopropoxy)benzylidene)-2,5-dioxo-3-piperazinylidene)methylbenzamide], for which the IC50 stood at 35 µM. The Degree of inhibition in PAI chromogenic substrate assay under setting [8] amounted to 76%. The inhibition at 100 µM under setting [7] was 79%.
For `COc1ccc(/C=c2\[nH]c(=O)/c(=C/c3ccc(OCCN(C)C)cc3)[nH]c2=O)cc1` [Compound 1911], under setting [1], the inhibition at 6.25 µM was determined as 13%. In addition, the inhibition at 12.5 µM under setting [2] was 20%. The inhibition at 25 µM under setting [3] was 15%. Moreover, the inhibition at 50 µM under setting [4] was 23%. The inhibition at 100 µM under setting [5] amounted to 38%.
Regarding `CN(C)CCCOc1ccc(/C=c2\[nH]c(=O)/c(=C/c3ccc(N(C)C)cc3)[nH]c2=O)cc1` [Compound 5068.HCl, (3Z,6Z)-3-(4-Dimethylaminobenzylidene)-6-(4-(3-dimethylaminopropoxy)benzylidene)-2,5-piperazinedione], the inhibition at 20 µM under setting [6] turned out to be 81%. The inhibition at 50 µM (50 μM (third part of Table 1), read-out: Degree of inhibition in PAI chromogenic substrate assay) is 76%. In addition, the inhibition at 100 µM under setting [7] was determined as 75%.
On to `COc1ccc(/C=c2\[nH]c(=O)/c(=C/c3ccc(OCCCN(C)C)cc3)[nH]c2=O)cc1` [Compound 5234, (3Z,6Z)-3-(4-(3-Dimethylaminopropoxy)benzylidene)-6-(4-methoxybenzylidene)-2,5-piperazinedione], for which, under setting [7], the inhibition at 100 µM is 10%.
As to `CN(C)CCCOc1ccc(/C=c2\[nH]c(=O)/c(=C/c3ccc(Br)cc3)[nH]c2=O)cc1` [Compound 5360], the IC50 amounted to 3.5 µM. Besides, the inhibition at 20 µM under setting [6] is 59%.
With `Cc1ccc(/C=c2\[nH]c(=O)/c(=C/c3ccc(OCCCN(C)C)cc3)[nH]c2=O)cc1` [Compound 5235, (3Z,6Z)-3-(4-(3-Dimethylaminopropoxy)benzylidene)-6-(4-methylbenzylidene)-2,5-piperazinedione], the IC50 is 6 µM.
With `CN(C)Cc1ccc(/C=c2\[nH]c(=O)/c(=C/c3ccccc3)[nH]c2=O)cc1` [Compound 1913, (3Z,6Z)-3-Benzylidene-6-(4-dimethylaminomethylbenzylidene)-2,5-piperazinedione], the inhibition at 6.25 µM under setting [1] was found to be 15%. Also, the inhibition at 12.5 µM under setting [2] was 14%. Moreover, under setting [3], the inhibition at 25 µM stood at 19%. Besides, under setting [4], the inhibition at 50 µM is 54%. Under setting [5], the inhibition at 100 µM is 71%.
For `CN(C)CCOc1ccc(/C=c2\[nH]c(=O)/c(=C/c3ccc(OCCN(C)C)cc3)[nH]c2=O)cc1` [Compound 1962, (3Z,6Z)-3,6-Di-(4-(2-dimethylaminoethoxy)benzylidene)-2,5-piperazinedione dihydrochloride], under setting [1], the inhibition at 6.25 µM turned out to be 1%. Besides, the inhibition at 12.5 µM under setting [2] amounted to 1%. The inhibition at 25 µM under setting [3] was 1%. Under setting [4], the inhibition at 50 µM is 2%. Moreover, the inhibition at 100 µM under setting [5] came out at 2%.
Regarding `CN(C)CCCOc1ccc(/C=c2\[nH]c(=O)/c(=C/c3ccc(Cl)c(Cl)c3)[nH]c2=O)cc1` [Compound 5236], the IC50 was found to be 2.8 µM.
